Experiments:
[1] = target: T1, human bradykinin 1 receptor (B1R) (Homo sapiens, UniProt P46663); assay: FLIPR Ca2+ assay, B1R antagonism, human; assay type: cell-based; conditions: 10 μM test substance, CHO K1 cells with human B1R gene (hB1R cells), Lys-Des-Arg9-bradykinin at EC80, % inhibition compared with the maximum achievable inhibition; for inhibition at 10 µM: read-out: B1R antagonism, human [10 μM] % inhibition
T1 construct: expressed in transfected cells
T1 sequence (P46663 1-353): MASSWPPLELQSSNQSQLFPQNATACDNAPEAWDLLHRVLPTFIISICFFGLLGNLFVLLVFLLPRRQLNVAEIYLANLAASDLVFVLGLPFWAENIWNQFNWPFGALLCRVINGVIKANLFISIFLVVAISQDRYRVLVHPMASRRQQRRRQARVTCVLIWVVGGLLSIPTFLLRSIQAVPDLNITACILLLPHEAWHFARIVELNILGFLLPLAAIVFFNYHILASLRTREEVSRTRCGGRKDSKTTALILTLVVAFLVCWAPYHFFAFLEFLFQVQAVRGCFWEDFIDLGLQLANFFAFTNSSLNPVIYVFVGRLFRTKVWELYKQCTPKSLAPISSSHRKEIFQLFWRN
Description: (§1) The agonistic or antagonistic action of substances can be quantified on the bradykinin 1 receptor (B1R) of the human and rat species with ectopically expressing cell lines (CHO K1 cells) and with the aid of a Ca^2+-sensitive dyestuff (Fluo-4) in a fluorescent imaging plate reader (FLIPR). The figure in % activation is based on the Ca^2+ signal after addition of Lys-Des-Arg^9-bradykinin (0.5 nM) or Des-Arg^9-bradykinin (100 nM). Antagonists lead to a suppression of the Ca^2+ inflow after addition of the agonist. % inhibition compared with the maximum achievable inhibition is stated.
(§2) The agonistic or antagonistic action of substances can be determined on the bradykinin 1 receptor (B1R) of the human and rat species with the following assay. In accordance with this assay, the Ca^2+ inflow through the channel is quantified with the aid of a Ca^2+-sensitive dyestuff (type Fluo-4, Molecular Probes Europe BV, Leiden, Holland) in a fluorescent imaging plate reader (FLIPR, Molecular Devices, Sunnyvale, USA).
(§3) Chinese hamster ovary cells (CHO K1 cells) transfected stably with the human B1R gene (hB1R cells) or the B1R gene of the rat (rB1R cells) are used. For functional studies, these cells are plated out on black 96-well plates with a clear base (BD Biosciences, Heidelberg, Germany or Greiner, Frickenhausen, Germany) in a density of 20,000-35,000 cells/well. The cells are left overnight at 37° C. and 5% CO2 in culture medium (hB1R cells: Nutrient Mixture Ham's F12, Gibco Invitrogen GmbH, Karlsruhe, Germany or DMEM, Sigma-Aldrich, Taufkirchen, Germany; rB1R cells: D-MEM/F12, Gibco Invitrogen GmbH, Karlsruhe, Germany) with 10 vol. % FBS (foetal bovine serum, Gibco Invitrogen GmbH, Karlsruhe, Germany or PAN Biotech GmbH, Aidenbach, Germany).
(§4) On the following day, the cells are loaded for 60 min at 37° C. with 2.13 μM Fluo-4 (Molecular Probes Europe BV, Leiden, Holland) in HBSS buffer (Hank's buffered saline solution, Gibco Invitrogen GmbH, Karlsruhe, Germany) with 2.5 mM probenecid (Sigma-Aldrich, Taufkirchen, Germany) and 10 mM HEPES (Sigma-Aldrich, Taufkirchen, Germany). The plates are then washed 2× with HBSS buffer, and HBSS buffer which additionally contains 0.1% BSA (bovine serum albumin; Sigma-Aldrich, Taufkirchen, Germany), 5.6 mM glucose and 0.05% gelatine (Merck KGaA, Darmstadt, Germany) is added. After a further incubation of 20 minutes at room temperature, the plates are inserted into the FLIPR for the Ca^2+ measurement.
(§5) Alternatively, the plates are washed with buffer A (15 mM HEPES, 80 mM NaCl, 5 mM KCl, 1.2 mM CaCl2, 0.7 mM MgSO4, 2 g/l glucose, 2.5 mM probenecid), buffer A is added and the plates are loaded with 2.5 μM Fluo-4 and 0.025% Pluronic F127 (Sigma-Aldrich, Taufkirchen, Germany). Thereafter, the cells are washed 2× with buffer A and incubated for 30 minutes with buffer A, which additionally contains 0.05% BSA and 0.05% gelatine, at room temperature and thereafter inserted into the FLIPR for the Ca^2+ measurement.
(§6) The Ca^2+-dependent fluorescence is measured here before and after addition of substances (λex=488 nm, λem=540 nm). Quantification is by measurement of the highest fluorescence intensity (FC, fluorescence counts) over time.
(§7) The FLIPR protocol consists of 2 additions of substance. Test substances (10 μM) are first pipetted on to the cells and the Ca^2+ inflow is compared with the control (hB1R: Lys-Des-Arg^9-bradykinin >=50 nM; rB1R: Des-Arg^9-bradykinin 10 μM). This gives the figure in % activation based on the Ca^2+ signal after addition of Lys-Des-Arg^9-bradykinin (>=50 nM) or Des-Arg^9-bradykinin (10 μM).
(§8) After incubation for 10-20 minutes, Lys-Des-Arg^9-bradykinin (hB1R) or Des-Arg^9-bradykinin (rB1R) in the concentration of the EC80 is applied and the inflow of Ca^2+ is likewise determined. Antagonists lead to a suppression of the Ca^2+ inflow. % inhibition compared with the maximum achievable inhibition is calculated. […]

[2] = target: T2, bradykinin 1 receptor (B1R) of the rat (Rattus norvegicus, UniProt P97583); assay: FLIPR Ca2+ assay, B1R antagonism, rat; assay type: cell-based; conditions: CHO K1 cells with rat B1R gene (rB1R cells), Des-Arg9-bradykinin at EC80, % inhibition compared with the maximum achievable inhibition; for inhibition at 10 µM: CHO-K1, 10 μM test substance, read-out: B1R antagonism, rat [10 μM] % inhibition
T2 construct: expressed in transfected cells
T2 sequence (P97583 1-337): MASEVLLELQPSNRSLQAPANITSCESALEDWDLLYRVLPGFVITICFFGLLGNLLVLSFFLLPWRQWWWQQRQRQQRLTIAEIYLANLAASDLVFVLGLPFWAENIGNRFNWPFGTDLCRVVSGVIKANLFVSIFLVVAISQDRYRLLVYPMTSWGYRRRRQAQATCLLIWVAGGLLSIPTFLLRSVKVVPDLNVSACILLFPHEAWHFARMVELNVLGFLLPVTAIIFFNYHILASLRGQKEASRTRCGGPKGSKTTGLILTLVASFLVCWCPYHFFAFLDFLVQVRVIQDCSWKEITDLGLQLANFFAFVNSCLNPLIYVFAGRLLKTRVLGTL
Description: as §1, §2, §3, §4, §5, §6, §7, §8

Compound	inhibition at 10 µM [1] [%]	inhibition at 10 µM [2] [%]	B1R antagonism, human [10 μM] % inhibition ([1]; 10 µM) [%]	B1R antagonism, rat [10 μM] % inhibition ([2]; 10 μM test substance, 10 µM) [%]	B1R antagonism, human [10 μM] % inhibition [1] [%]
COc1cc(C)c(S(=O)(=O)N2CCCCC2COCC(=O)N2CCC(OCCCN3CCCCC3)(c3cccnc3)CC2)c(C)c1 (stereo not shown) [Example 17, 2-((1-(4-methoxy-2,6-dimethylphenylsulfonyl)piperidin-2-yl)methoxy)-1-(4-(3-(piperidin-1-yl)propoxy)-4-(pyridin-3-yl)piperidin-1-yl)ethanone]	102	102	–	–	–
O=C(CCCC1CCCCN1S(=O)(=O)c1ccccc1C(F)(F)F)N1CCC(OCCN2CCCC2)(c2cccnc2)CC1 (stereo not shown) [Example 8, 1-(4-(pyridin-3-yl)-4-(2-(pyrrolidin-1-yl)ethoxy)piperidin-1-yl)-4-(1-(2-(trifluoromethyl)phenylsulfonyl)piperidin-2-yl)butan-1-one]	70	60	–	–	–
Cc1cc(S(=O)(=O)N2CCCCC2CCC(=O)N2CCC(OCCCN3CCCCC3)(c3cccnc3)CC2)c(C)cc1Cl (stereo not shown) [Example 12, 3-(1-(4-chloro-2,5-dimethylphenylsulfonyl)piperidin-2-yl)-1-(4-(3-(piperidin-1-yl)propoxy)-4-(pyridin-3-yl)piperidin-1-yl)propan-1-one]	103	46	–	–	–
COc1cc(C)c(S(=O)(=O)N(CCOCC(=O)N2CCC(OCCN3CCCC3)(c3cccnc3)CC2)C2CC2)c(C)c1 [Example 3, N-cyclopropyl-4-methoxy-2,6-dimethyl-N-(2-(2-oxo-2-(4-(pyridin-3-yl)-4-(2-(pyrrolidin-1-yl)ethoxy)piperidin-1-yl)ethoxy)ethyl)benzenesulfonamide]	100	101	–	–	–
COc1cc(C)c(S(=O)(=O)N2c3ccccc3CC[C@H]2COCC(=O)N2CCC(OCCN3CCCC3)(c3cccnc3)CC2)c(C)c1 [Example 1, (S)-2-((1-(4-methoxy-2,6-dimethylphenylsulfonyl)-1,2,3,4-tetrahydroquinolin-2-yl)methoxy)-1-(4-(pyridin-3-yl)-4-(2-(pyrrolidin-1-yl)ethoxy)piperidin-1-yl)ethanone]	99	100	–	–	–
COc1cc(C)c(S(=O)(=O)N(C)CCOCC(=O)N2CCC(OCCN3CCCC3)(c3cccnc3)CC2)c(C)c1 [Example 21, 4-methoxy-N,2,6-trimethyl-N-(2-(2-oxo-2-(4-(pyridin-3-yl)-4-(2-(pyrrolidin-1-yl)ethoxy)piperidin-1-yl)ethoxy)ethyl)benzenesulfonamide]	98	100	–	–	–
COc1cc(C)c(S(=O)(=O)N2CCCCC2CCCC(=O)N2CCC(OCCN3CCCC3)(c3cccnc3)CC2)c(C)c1 (stereo not shown) [Example 88, 4-[1-[(4-methoxy-2,6-dimethyl-phenyl)sulfonyl]-piperidin-2-yl]-1-[4-pyridin-3-yl-4-(2-pyrrolidin-1-yl-ethoxy)-piperidin-1-yl]-butan-1-one]	–	–	–	–	100

Continued, in another order:

inhibition at 10 µM [1] [%]	inhibition at 10 µM [2] [%]	B1R antagonism, human [10 μM] % inhibition ([1]; 10 µM) [%]	B1R antagonism, rat [10 μM] % inhibition ([2]; 10 μM test substance, 10 µM) [%]	Compound	B1R antagonism, human [10 μM] % inhibition [1] [%]
100	103	–	–	COc1cc(C)c(S(=O)(=O)N2CCCCC2COCC(=O)N2CCC(OCCN3CCCC3)(c3ccncc3)CC2)c(C)c1 (stereo not shown) [Example 84, 2-[[1-[(4-methoxy-2,6-dimethyl-phenyl)sulfonyl]-piperidin-2-yl]-methoxy]-1-[4-pyridin-4-yl-4-(2-pyrrolidin-1-yl-ethoxy)-piperidin-1-yl]-ethanone]	–
–	–	100	102	COc1cc(C)c(S(=O)(=O)N(C)CCOCC(=O)N2CCC(OCCN3CCCC3)(c3cccnc3)CC2)c(C)c1 [Example 80, 4-methoxy-N,2,6-trimethyl-N-[2-[2-oxo-2-[4-pyridin-3-yl-4-(2-pyrrolidin-1-yl-ethoxy)-piperidin-1-yl]-ethoxy]-ethyl]-benzenesulfonic acid amide]	–
74	98	–	–	CN1CCN(CCOC2(c3cccnc3)CCN(C(=O)COCC3CCc4ccccc4N3S(=O)(=O)c3ccc(Cl)c(Cl)c3)CC2)CC1 (stereo not shown) [Example 38, 2-((1-(3,4-dichlorophenylsulfonyl)-1,2,3,4-tetrahydroquinolin-2-yl)methoxy)-1-(4-(2-(4-methylpiperazin-1-yl)ethoxy)-4-(pyridin-3-yl)piperidin-1-yl)ethanone]	–
100	103	–	–	COc1cc(C)c(S(=O)(=O)N2CCCC[C@H]2COCC(=O)N2CCC(OCCN3CCCC3)(c3ccncc3)CC2)c(C)c1 [Example 57, 2-[[(2S)-1-[(4-methoxy-2,6-dimethyl-phenyl)sulfonyl]-piperidin-2-yl]-methoxy]-1-[4-pyridin-4-yl-4-(2-pyrrolidin-1-yl-ethoxy)-piperidin-1-yl]-ethanone]	–
57	46	–	–	O=C(CC1CCCCN1S(=O)(=O)c1cccc(C(F)(F)F)c1)N1CCC(OCCCN2CCCCC2)(c2cccnc2)CC1 (stereo not shown) [Example 23, 1-(4-(3-(piperidin-1-yl)propoxy)-4-(pyridin-3-yl)piperidin-1-yl)-2-(1-(3-(trifluoromethyl)phenylsulfonyl)piperidin-2-yl)ethanone]	–
100	101	–	–	COc1cc(C)c(S(=O)(=O)N(C)CCOCC(=O)N2CCC(OCCCN3CCCC3)(c3cccnc3)CC2)c(C)c1 [Example 41, 4-methoxy-N,2,6-trimethyl-N-(2-(2-oxo-2-(4-(pyridin-3-yl)-4-(3-(pyrrolidin-1-yl)propoxy)piperidin-1-yl)ethoxy)ethyl)benzenesulfonamide]	–

Reference: patent publication US8318769B2, “Substituted sulfonamide compounds” (Gruenethal GmbH, priority 2008, dated 2012)
